Measured values published in patent publication US20220128542A1, “TREATMENT EFFICIENCY EVALUATION” (TX MEDIC AB, priority 2019, published 2022).

Tested on: brain of rats subjected to closed-head diffuse severe TBI (sTBI)
Assay: HPLC of energy metabolites, antioxidants and oxidative/nitrosative stress biomarkers in brain, dose study after sTBI (Example 3)
Assay type: in vivo, rat
Settings: for NAD^+/NADH ratio in brain homogenate: calculated, adimensional, rats 7 days post-sTBI
Source text: Male Wistar rats (n=160) of 300-350 g body weight were used in this study.
1994, 80: 291-300. This model causes diffuse axonal injury and it is able to reproduce the physical and mechanical characteristics of the diffuse TBI in humans.
Rats were placed prone on a bed of specific polyurethane foam inserted in a special container. This foam dissipates the major part of the potential energy (deriving from the mechanical forces) and prevents any rebound of the animal after the impact that could produce spinal damages.
These time points are coincident with the worst biochemical derangement (2 days) or, in the case of a mildly injured brain, with a full metabolic recovery (7 days).
The drug treatment consisted in a subcutaneous injection of 0.5 ml of LMW-DS (Tikomed) and administered at 3 different concentrations (1, 5 and 15 mg/kg body weight), according to the schematic protocol described below.
Sham-operated animals underwent the same procedure of anesthesia but TBI and were used as the control group.
Rats used in this study were divided into 4 groups in order to carry out a study on the efficacy of three different concentrations of LMW-DS at two different times post TBI. As subsequently specified, in each group there were animals subjected to a specific treatment for metabolic analyses and other animals intended to histo-morphological studies, according to the procedures described below.
Rats subjected to sTBI and receiving a single administration of LMW-DS after 30 minutes post-TBI, with sacrifice at 2 days post-TBI. Animals were divided in the following subgroups:
Rats subjected to sTBI and receiving a single administration of LMW-DS after 30 minutes post-TBI, with sacrifice at 7 days post-TBI. Animals were divided in the following subgroups:
Rats (n=12) subjected to sTBI and receiving repeated administrations of the maximal dose of LMW-DS (15 mg/kg b.w.) after 30 minutes, 3 days and 5 days post-TBI, with sacrifice at 7 days post-TBI. Four additional rats were used for the histo-morphological studies. Total rats in this group: n=16
To minimize metabolite loss, an in vivo craniectomy was performed in all animals during anesthesia. The rat skull was carefully removed, the brain was exposed, sharply cut along the sagittal fissure and the two hemispheres were separated. The hemispheres dedicated to biochemical analyses were freeze-clamped by aluminum tongues pre-cooled in liquid nitrogen and then immersed in liquid nitrogen. The freeze-clamping procedure was introduced to accelerate freezing of the tissue, thus minimizing potential metabolite loss.
Tissue homogenization for metabolite analyses was effected as described below. After the wet weight (w.w.) determination, the frozen hemispheres were placed into 7 ml of ice-cold, nitrogen-saturated, precipitating solution (1:10 w/v) composed by CH3CN+10 mM KH2PO4, pH 7.40, (3:1; v:v), and the homogenization was performed using an Ultra-Turrax homogenizer set at 24,000 rpm/min (Janke & Kunkel, Staufen, Germany). After centrifugation at 20,690×g, for 10 min at 4° C., the clear supernatants were saved, pellets were supplemented with an aliquot of 10 mM KH2PO4 and homogenized again as described above and saved overnight at −20° C. in order to obtain a complete recovery of aqueous phase from tissue. A second centrifugation was performed (20,690×g, for 10 min at 4° C.) and supernatants combined with those previously obtained were extracted by vigorous agitation with a double volume of HPLC-grade CHCl3 and centrifuged as above.

[1] = 1 mg/kg b.w. single, 30 min after trauma, 2 days post-TBI
[2] = 1 mg/kg b.w. single, 30 min after trauma, 2 days post-sTBI
[3] = 5 mg/kg b.w. single, 30 min after trauma, 2 days post-TBI
[4] = 5 mg/kg b.w. single, 30 min after trauma, 2 days post-sTBI
[5] = 15 mg/kg b.w. single, 30 min after trauma, 2 days post-sTBI
[6] = rats 2 days post-TBI, single 1 mg/kg b.w. 30 min after trauma
[7] = rats 2 days post-TBI, single 5 mg/kg b.w. 30 min after trauma
[8] = rats 2 days post-TBI, single 15 mg/kg b.w. 30 min after trauma

Substance: sodium salt of dextran sulfate [LMW-DS]
- NO2 brain concentration [1]: 158.36 ± 19.08 nmol/g w.w.
- acetyl-CoA brain concentration [1]: 27.74 ± 3.23 nmol/g w.w.
- ascorbic acid brain concentration [1]: 2567.35 ± 147.76 nmol/g w.w.
- AMP brain concentration [2]: 62.04 ± 7.46 nmol/g w.w.
- CMP brain concentration [2]: 29.39 ± 6.00 nmol/g w.w.
- CTP brain concentration [2]: 33.01 ± 7.63 nmol/g w.w.
- GDP glucose brain concentration [2]: 65.66 ± 41.61 nmol/g w.w.
- GMP brain concentration [2]: 205.06 ± 25.74 nmol/g w.w.
- IMP brain concentration [2]: 45.97 ± 8.65 nmol/g w.w.
- NAD^+/NADH ratio (adimensional) [2]: 33.91 ± 9.32
- UDP-Gal brain concentration [2]: 118.50 ± 9.89 nmol/g w.w.
- UDP-GalNac brain concentration [2]: 21.24 ± 3.13 nmol/g w.w.
- UDP-Glc brain concentration [2]: 45.14 ± 6.68 nmol/g w.w.
- UDP-GlcNac brain concentration [2]: 96.62 ± 8.80 nmol/g w.w.
- UMP brain concentration [2]: 148.04 ± 20.45 nmol/g w.w.
- UTP brain concentration [2]: 104.07 ± 16.34 nmol/g w.w.
- GSH brain concentration [3]: 2067.79 ± 301.54 nmol/g w.w.
- NO2 brain concentration [3]: 218.12 ± 26.28 nmol/g w.w.
- NO3 brain concentration [3]: 148.41 ± 32.30 nmol/g w.w.
- acetyl-CoA brain concentration [3]: 34.85 ± 4.05 nmol/g w.w.
- ascorbic acid brain concentration [3]: 2626.68 ± 151.17 nmol/g w.w.
- AMP brain concentration [4]: 67.03 ± 11.85 nmol/g w.w.
- CTP brain concentration [4]: 37.72 ± 7.63 nmol/g w.w.
- GDP brain concentration [4]: 183.27 ± 25.32 nmol/g w.w.
- GDP glucose brain concentration [4]: 83.81 ± 37.35 nmol/g w.w.
- NAD^+ brain concentration [4]: 376.85 ± 64.15 nmol/g w.w.
- NAD^+/NADH ratio (adimensional) [4]: 36.61 ± 6.09
- UDP-GalNac brain concentration [4]: 20.75 ± 3.06 nmol/g w.w.
- UTP brain concentration [4]: 142.82 ± 22.43 nmol/g w.w.
- GSH brain concentration (15 mg/kg b.w. single, 30 min after trauma, 2 days post-TBI): 2418.94 ± 352.75 nmol/g w.w.
- ADP-ribose brain concentration [5]: 23.06 ± 4.63 nmol/g w.w.
- AMP brain concentration [5]: 66.26 ± 10.74 nmol/g w.w.
- CTP brain concentration [5]: 37.53 ± 7.59 nmol/g w.w.
- GDP brain concentration [5]: 194.61 ± 26.88 nmol/g w.w.
- GDP glucose brain concentration [5]: 84.24 ± 37.54 nmol/g w.w.
- GMP brain concentration [5]: 178.88 ± 22.46 nmol/g w.w.
- NADPH brain concentration [5]: 8.93 ± 0.74 nmol/g w.w.
- NADP^+ brain concentration [5]: 17.75 ± 4.06 nmol/g w.w.
- NAD^+ brain concentration [5]: 475.32 ±80.91 nmol/g w.w.
- NAD^+/NADH ratio (adimensional) [5]: 44.40 ± 7.67
- UDP brain concentration [5]: 80.00 ± 8.20 nmol/g w.w.
- UDP-GalNac brain concentration [5]: 22.37 ± 3.30 nmol/g w.w.
- UDP-Glc brain concentration [5]: 43.41 ± 6.43 nmol/g w.w.
- UDP-GlcNac brain concentration [5]: 108.74 ± 9.90 nmol/g w.w.
- UMP brain concentration [5]: 147.53 ± 20.38 nmol/g w.w.
- UTP brain concentration [5]: 108.21 ± 16.99 nmol/g w.w.
- concentrations of ascorbic acid and reduced glutathione (GSH) (2 days post impact): significantly ameliorated
- NAA concentration (FIG. 7) (2 days post impact, 5 or 15 mg/kg b.w.): significantly higher than values found in sTBI rats
- concentrations of UTP and ADP (2 days post-sTBI): No effects
- nicotinic coenzyme pool (2 days post-sTBI, 15 mg/kg b.w.): significant protection
- Acetyl-CoA (2 days post-sTBI, 5 or 15 mg/kg b.w.): partial rescue
- high energy phosphates (ATP, GTP, and CTP) (2 days post-sTBI, all three dosages (1, 5, 15 mg/kg)): Significantly higher values
- ATP level, decrease versus value of controls (7 days post impact, untreated sTBI 35% decrease): 16%
- NAA concentration, decrease versus value of controls (7 days post impact, untreated sTBI 48% lower): 16%
- NAD+ level and NAD/NADH ratio (7 days post injury, single and repeat 15 mg/kg b.w.): normalize
- NAA (FIG. 11) (7 days post sTBI, increasing single doses or repeat maximal dose): dose dependent increase
- CoA-SH and Acetyl-CoA (7 days post-sTBI, 5 or 15 mg/kg b.w. (single and repeat)): Remarkable positive effects
- ATP (FIG. 8) (7 days post-sTBI, any dose tested): significant increases
- NAD^+/NADH ratio in brain homogenate (repeated 15 mg/kg b.w.): 37.47 ± 9.46
- NAD^+/NADH ratio in brain homogenate (single 1 mg/kg b.w.): 33.91 ± 9.32
- NAD^+/NADH ratio in brain homogenate (single 5 mg/kg b.w.): 33.90 ± 7.19
- ADENOSINE concentration in brain homogenate [6]: 68.91 ± 16.50 nmol/g w.w.
- CDP choline concentration in brain homogenate [6]: 8.23 ± 1.22 nmol/g w.w.
- CREATININE concentration in brain homogenate [6]: 17.66 ± 3.29 nmol/g w.w.
- CYTIDINE concentration in brain homogenate [6]: 13.79 ± 2.49 nmol/g w.w.
- CYTOSINE concentration in brain homogenate [6]: 13.47 ± 1.65 nmol/g w.w.
- URACIL concentration in brain homogenate [6]: 17.18 ± 3.36 nmol/g w.w.
- CYTOSINE concentration in brain homogenate [7]: 13.65 ± 1.67 nmol/g w.w.
- URACIL concentration in brain homogenate [7]: 17.83 ± 3.48 nmol/g w.w.
- URIDINE concentration in brain homogenate [7]: 117.21 ± 20.64 nmol/g w.w.
- XANTHINE concentration in brain homogenate [7]: 6.71 ± 0.70 nmol/g w.w.
- ADENOSINE concentration in brain homogenate [8]: 53.25 ± 12.75 nmol/g w.w.
- CDP choline concentration in brain homogenate [8]: 7.07 ± 1.05 nmol/g w.w.
- CYTIDINE concentration in brain homogenate [8]: 11.46 ± 2.07 nmol/g w.w.
- CYTOSINE concentration in brain homogenate [8]: 13.57 ± 1.66 nmol/g w.w.
